Data from PubChem BioAssay (NCI).
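Five compound concentrations were applied to cells in 96-well plates for 48 hours; endpoints were derived by simple linear interpolation of the resulting dose-response curve. Here, GI50 denotes the concentration required for 50% inhibition of growth. TGI is the concentration that stops growth completely.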

How the values were obtained:
Experiment in all cases: NCI-60 cell line screen, 48 h
MDA-MB-435 = test system: MDA-MB-435
IGROV1 ovarian = test system: IGROV1 ovarian
NCI/ADR-RES ovarian = test system: NCI/ADR-RES ovarian
BT-549 breast = test system: BT-549 breast
SNB-19 CNS = test system: SNB-19 CNS
NCI-H522 lung = test system: NCI-H522 lung
NCI-H460 lung = test system: NCI-H460 lung
DU-145 prostate = test system: DU-145 prostate
T-47D breast = test system: T-47D breast
RPMI-8226 leukemia = test system: RPMI-8226 leukemia
HOP-62 NSCLC = test system: HOP-62 NSCLC
SF-539 CNS = test system: SF-539 CNS
SF-295 CNS = test system: SF-295 CNS
SNB-75 CNS = test system: SNB-75 CNS
MDA-MB-231 breast = test system: MDA-MB-231 breast
OVCAR-4 ovarian = test system: OVCAR-4 ovarian
A549 NSCLC = test system: A549 NSCLC
SK-OV-3 ovarian = test system: SK-OV-3 ovarian
M14 melanoma = test system: M14 melanoma
SN12C renal = test system: SN12C renal
CCRF-CEM leukemia = test system: CCRF-CEM leukemia
HOP-92 NSCLC = test system: HOP-92 NSCLC
HCC-2998 colon = test system: HCC-2998 colon
SK-MEL-2 melanoma = test system: SK-MEL-2 melanoma
NCI-H226 lung = test system: NCI-H226 lung
HS 578T breast = test system: HS 578T breast
MALME-3M melanoma = test system: MALME-3M melanoma
LOX IMVI melanoma = test system: LOX IMVI melanoma

`Cc1c(C)c2ccc(OC/C=C3\CCC(=O)O3)cc2oc1=O` gave a GI50 (MDA-MB-435) of 17.1 µM, a TGI (MDA-MB-435) of 34.6 µM and a GI50 (IGROV1 ovarian) of 14.2 µM. For the same molecule, the TGI (IGROV1 ovarian) was 28.9 µM, the GI50 (NCI/ADR-RES ovarian) was 16.9 µM and the TGI (NCI/ADR-RES ovarian) was 35.7 µM. For the same molecule, the GI50 (BT-549 breast) was 15.2 µM, the TGI (BT-549 breast) was 28.9 µM and the GI50 (SNB-19 CNS) was 17.2 µM. The TGI (SNB-19 CNS) was 35.9 µM, the GI50 (NCI-H522 lung) was 10.2 µM and the TGI (NCI-H522 lung) was 23.7 µM. For the same molecule, the GI50 (NCI-H460 lung) was 16.4 µM, the TGI (NCI-H460 lung) was 35.6 µM and the GI50 (DU-145 prostate) was 12.2 µM. The TGI (DU-145 prostate) was 26.1 µM, the GI50 (T-47D breast) was 14.5 µM and the TGI (T-47D breast) was 47.8 µM. The GI50 (RPMI-8226 leukemia) was 6.1 µM, the TGI (RPMI-8226 leukemia) was 40.9 µM and the GI50 (HOP-62 NSCLC) was 15 µM. It also gave a TGI (HOP-62 NSCLC) of 28.8 µM, a GI50 (SF-539 CNS) of 16.1 µM and a TGI (SF-539 CNS) of 31.7 µM. For the same molecule, the GI50 (SF-295 CNS) was 20.5 µM, the TGI (SF-295 CNS) was 45 µM and the GI50 (SNB-75 CNS) was 12.3 µM. For the same molecule, the TGI (SNB-75 CNS) was 24.8 µM, the GI50 (MDA-MB-231 breast) was 16 µM and the TGI (MDA-MB-231 breast) was 30 µM. The GI50 (OVCAR-4 ovarian) was 12.6 µM, the TGI (OVCAR-4 ovarian) was 28.9 µM and the GI50 (A549 NSCLC) was 16.9 µM. The TGI (A549 NSCLC) was 31.9 µM, the GI50 (SK-OV-3 ovarian) was 26.5 µM and the TGI (SK-OV-3 ovarian) was 93.1 µM. The GI50 (M14 melanoma) was 11.4 µM, the TGI (M14 melanoma) was 24.7 µM and the GI50 (SN12C renal) was 18.2 µM. For the same molecule, the TGI (SN12C renal) was 43 µM, the GI50 (CCRF-CEM leukemia) was 17.4 µM and the TGI (CCRF-CEM leukemia) was 58.4 µM. For the same molecule, the GI50 (HOP-92 NSCLC) was 15 µM, the TGI (HOP-92 NSCLC) was 31.2 µM and the GI50 (HCC-2998 colon) was 18.3 µM. For the same molecule, the TGI (HCC-2998 colon) was 33 µM, the GI50 (SK-MEL-2 melanoma) was 14.2 µM and the TGI (SK-MEL-2 melanoma) was 30.7 µM. For the same molecule, the GI50 (NCI-H226 lung) was 18.9 µM, the TGI (NCI-H226 lung) was 40.8 µM and the GI50 (HS 578T breast) was 20.2 µM. The TGI (HS 578T breast) was 55.9 µM, the GI50 (MALME-3M melanoma) was 11.9 µM and the TGI (MALME-3M melanoma) was 26.7 µM. The GI50 (LOX IMVI melanoma) was 15.2 µM.
